Results published in patent US9409866B2, “Pyridine-2-amides useful as CB2 agonists” (Hoffmann-La Roche Inc., priority 2012, dated 2016).
Like-named read-outs stand apart in the source and are kept apart here.

Tests used:
human CB2 receptors = human CB2 receptors (Homo sapiens (Human), UniProt P34972); assay: functional cAMP assay, CHO cells expressing human CB2; type: cell-based
Outline: (§1)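 CHO-hCB1/hCB2 cells, KRB + 1 mM IBMX preincubation 30 min 30 °C; cpd 30 min 30 °C; lysis + TR-FRET cAMP detection, 2 h RT; cAMP from std curve; EC50.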

human CB1 receptors = human CB1 receptors (Homo sapiens (Human), UniProt P21554); assay: functional cAMP assay, CHO cells expressing human CB1; type: cell-based
Sequence of human CB1 receptors (P21554 whole entry): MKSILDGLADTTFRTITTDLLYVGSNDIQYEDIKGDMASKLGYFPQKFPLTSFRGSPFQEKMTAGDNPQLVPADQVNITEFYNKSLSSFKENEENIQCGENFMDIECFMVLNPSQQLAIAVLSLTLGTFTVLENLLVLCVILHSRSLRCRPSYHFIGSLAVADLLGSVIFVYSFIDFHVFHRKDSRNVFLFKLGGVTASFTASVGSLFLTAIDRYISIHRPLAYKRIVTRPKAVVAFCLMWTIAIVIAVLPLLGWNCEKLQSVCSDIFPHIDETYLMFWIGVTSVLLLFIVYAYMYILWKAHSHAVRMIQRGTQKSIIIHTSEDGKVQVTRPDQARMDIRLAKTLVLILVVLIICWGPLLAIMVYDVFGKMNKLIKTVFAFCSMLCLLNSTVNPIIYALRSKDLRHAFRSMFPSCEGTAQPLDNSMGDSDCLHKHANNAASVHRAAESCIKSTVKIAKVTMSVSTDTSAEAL
Outline: as §1

[1] = functional cAMP assay, CHO cells expressing human CB1; read-out: Human CB1 EC50
[2] = Human CB1 EC50 (uM), functional cAMP assay, CHO cells expressing human CB1
[3] = read-out: Human CB1 EC50; functional cAMP assay, CHO cells expressing human CB1

Sequence of human CB2 receptors (P34972 whole entry): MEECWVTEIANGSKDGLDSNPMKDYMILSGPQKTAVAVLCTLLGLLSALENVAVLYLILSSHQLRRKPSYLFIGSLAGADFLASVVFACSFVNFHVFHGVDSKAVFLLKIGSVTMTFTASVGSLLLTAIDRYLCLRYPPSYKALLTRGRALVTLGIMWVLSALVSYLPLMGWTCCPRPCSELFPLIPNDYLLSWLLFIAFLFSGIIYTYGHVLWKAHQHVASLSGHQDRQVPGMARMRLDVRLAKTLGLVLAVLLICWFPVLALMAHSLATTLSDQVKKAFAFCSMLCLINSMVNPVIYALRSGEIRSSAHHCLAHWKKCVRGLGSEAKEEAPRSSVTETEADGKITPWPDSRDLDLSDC

SMILES	EC50 (human CB2 receptors; read-out: Human CB2 EC50) [µM]	EC50 (human CB1 receptors; [1]) [µM]	EC50 (human CB2 receptors; Human CB2 EC50 (uM)) [µM]	EC50 (human CB1 receptors; [2]) [µM]	EC50 (human CB1 receptors; [3]) [µM]
Cc1nc(C(C)(CS(C)(=O)=O)NC(=O)c2cc(O[C@@H](C)C(F)(F)F)c(C3CCC3)cn2)no1 (stereo partly drawn) [Example 111, 5-Cyclobutyl-4-((S)-2,2,2-trifluoro-1-methyl-ethoxy)-pyridine-2-carboxylic acid [2-methanesulfonyl-1-methyl-1-(5-methyl-[1,2,4]oxadiazol-3-yl)-ethyl]-amide]	0.003	0.43	–	–	–
C[C@@H](Oc1cc(C(=O)NC2(CC(N)=O)COC2)ncc1C1CC1)C(F)(F)F [Example 63, 5-Cyclopropyl-4-((R)-2,2,2-trifluoro-1-methyl-ethoxy)-pyridine-2-carboxylic acid (3-carbamoylmethyl-oxetan-3-yl)-amide]	0.283	> 10	–	–	–
Cc1nc([C@](C)(CS(C)(=O)=O)NC(=O)c2cc(OCC(F)(F)F)c(C3CC3)cn2)no1 (single isomer, unassigned) [Example 99, 5-Cyclopropyl-4-(2,2,2-trifluoro-ethoxy)-pyridine-2-carboxylic acid [2-methanesulfonyl-1-methyl-1-(5-methyl-[1,2,4]oxadiazol-3-yl)-ethyl]-amide]	–	–	0.104	> 10	–
CC(CF)Oc1cc(C(=O)NC(C)(CC(N)=O)C2CC2)ncc1C1CC1 (single isomer, unassigned) [Example 302, N-(4-amino-2-cyclopropyl-4-oxobutan-2-yl)-5-cyclopropyl-4-(1-fluoropropan-2-yloxy)picolinamide]	–	–	0.001	0.869	–
CNC(=O)CC(C)(NC(=O)c1cc(OCC(F)(F)F)c(C2CC2)cn1)C1CC1 (centres unmarked) [Example 229, 5-cyclopropyl-N-[2-cyclopropyl-4-(methylamino)-4-oxobutan-2-yl]-4-(2,2,2-trifluoroethoxy)pyridine-2-carboxamide]	0.0114	> 10	–	–	–
O=C(c1cc(OCC(F)(F)F)c(C2CC2)cn1)N1CCCC12COC2 [Example 71, [5-Cyclopropyl-4-(2,2,2-trifluoro-ethoxy)-pyridin-2-yl]-(2-oxa-5-aza-spiro[3.4]oct-5-yl)-methanone]	0.586	> 10	–	–	–
Cc1nc(C(C)(CS(C)(=O)=O)NC(=O)c2cc(OCC(F)(F)F)c(C3(O)CCC3)cn2)no1 (centres unmarked) [Example 129, 5-(1-hydroxycyclobutyl)-N-[2-(5-methyl-1,2,4-oxadiazol-3-yl)-1-methylsulfonylpropan-2-yl]-4-(2,2,2-trifluoroethoxy)pyridine-2-carboxamide]	1.09	> 10	–	–	–
CC(C)(C)C(NC(=O)c1cc(OCC(F)(F)F)c(N2CC(F)(F)C2)cn1)C(N)=O (single isomer, unassigned) [Example 262, N-[1-amino-3,3-dimethyl-1-oxobutan-2-yl]-5-(3,3-difluoroazetidin-1-yl)-4-(2,2,2-trifluoroethoxy)pyridine-2-carboxamide]	–	–	0.261	> 10	–
CC(C)(C)C(NC(=O)c1cc(OCC(F)(F)F)c(N2CC(F)(F)C2)cn1)C(N)=O (centres unmarked) [Example 256, N-(1-amino-3,3-dimethyl-1-oxobutan-2-yl)-5-(3,3-difluoroazetidin-1-yl)-4-(2,2,2-trifluoroethoxy)pyridine-2-carboxamide]	0.0132	> 10	–	–	–
CC(C)(C)C(NC(=O)c1cc(OCC2CC2)c(C2CC2)cn1)c1nccs1 (centres unmarked) [Example 43, 5-Cyclopropyl-4-cyclopropylmethoxy-pyridine-2-carboxylic acid (2,2-dimethyl-1-thiazol-2-yl-propyl)-amide]	0.0032	> 10	–	–	–
CNC(=O)C(NC(=O)c1cc(O[C@@H](C)C(F)(F)F)c(C2CC2)cn1)C(C)(C)O (stereo partly drawn) [Example 252, 5-cyclopropyl-N-[3-hydroxy-3-methyl-1-(methylamino)-1-oxobutan-2-yl]-4-[(2S)-1,1,1-trifluoropropan-2-yl]oxypyridine-2-carboxamide]	0.344	> 10	–	–	–
Cc1nnc(C(C)(CC2CC2)NC(=O)c2cc(OCC(F)(F)F)c(C3CC3)cn2)o1 (single isomer, unassigned) [Example 185, 5-cyclopropyl-N-[1-cyclopropyl-2-(5-methyl-1,3,4-oxadiazol-2-yl)propan-2-yl]-4-(2,2,2-trifluoroethoxy)pyridine-2-carboxamide]	–	–	0.0302	–	> 10
CC1(C(NC(=O)c2cc(OCC(F)(F)F)c(C3CC3)cn2)C(N)=O)COC1 (single isomer, unassigned) [Example 269, N-[2-amino-1-(3-methyloxetan-3-yl)-2-oxoethyl]-5-cyclopropyl-4-(2,2,2-trifluoroethoxy)pyridine-2-carboxamide]	–	–	0.771	–	> 10
CC(C)C[C@H](NC(=O)c1cc(OCC2CC2)c(Br)cn1)C(N)=O [Example 9, 5-Bromo-4-cyclopropylmethoxy-pyridine-2-carboxylic acid ((S)-1-carbamoyl-3-methyl-butyl)-amide]	0.0329	> 10	–	–	–
Cc1nc(C(C)(NC(=O)c2cc(OCC(F)(F)F)c(C3CC3)cn2)C(=O)N2CC3(COC3)C2)no1 (centres unmarked) [Example 148, 5-cyclopropyl-N-[2-(5-methyl-1,2,4-oxadiazol-3-yl)-1-(2-oxa-6-azaspiro[3.3]heptan-6-yl)-1-oxopropan-2-yl]-4-(2,2,2-trifluoroethoxy)pyridine-2-carboxamide]	0.205	> 10	–	–	–
Cc1nc(C(C)(CS(C)(=O)=O)NC(=O)c2cc(OCC(F)(F)F)c(C3=CCC3)cn2)no1 (centres unmarked) [Example 127, 5-(cyclobuten-1-yl)-N-[2-(5-methyl-1,2,4-oxadiazol-3-yl)-1-methylsulfonylpropan-2-yl]-4-(2,2,2-trifluoroethoxy)pyridine-2-carboxamide]	0.0196	> 10	–	–	–
CC(C)C[C@H](NC(=O)c1cc(OCC2CC2)c(C2CC2)cn1)C(N)=O [Example 47, 5-Cyclopropyl-4-cyclopropylmethoxy-pyridine-2-carboxylic acid ((S)-1-carbamoyl-3-methyl-butyl)-amide]	0.0118	> 10	–	–	–
CNC(=O)CC(C)(NC(=O)c1cc(O[C@@H](C)C(F)(F)F)c(C2CC2)cn1)C1CC1 (stereo partly drawn) [Example 247, 5-cyclopropyl-N-[2-cyclopropyl-4-(methylamino)-4-oxobutan-2-yl]-4-[(2S)-1,1,1-trifluoropropan-2-yl]oxypyridine-2-carboxamide]	0.0193	> 10	–	–	–
NC(=O)CC1(NC(=O)c2cc(OCC(F)(F)F)c(C3CCC3)cn2)CS(=O)(=O)C1 [Example 299, N-[3-(2-amino-2-oxoethyl)-1,1-dioxothietan-3-yl]-5-cyclobutyl-4-(2,2,2-trifluoroethoxy)pyridine-2-carboxamide]	0.002	> 10	–	–	–
CNC(=O)C(NC(=O)c1cc(O[C@@H](C)C(F)(F)F)c(C2CC2)cn1)C(C)(C)O (stereo partly drawn) [Example 253, 5-cyclopropyl-N-[3-hydroxy-3-methyl-1-(methylamino)-1-oxobutan-2-yl]-4-[(2S)-1,1,1-trifluoropropan-2-yl]oxypyridine-2-carboxamide]	0.0019	> 10	–	–	–
Cc1nc(C(C)(CS(C)(=O)=O)NC(=O)c2cc(OCC(F)(F)F)c(C3CC3)cn2)no1 (centres unmarked) [Example 84, 5-Cyclopropyl-4-(2,2,2-trifluoro-ethoxy)-pyridine-2-carboxylic acid [2-methanesulfonyl-1-methyl-1-(5-methyl-[1,2,4]oxadiazol-3-yl)-ethyl]-amide]	0.0488	> 10	–	–	–
CC(CC1CC1)(NC(=O)c1cc(OCC(F)(F)F)c(C2CC2)cn1)C(N)=O (centres unmarked) [Example 186, N-(1-amino-3-cyclopropyl-2-methyl-1-oxopropan-2-yl)-5-cyclopropyl-4-(2,2,2-trifluoroethoxy)pyridine-2-carboxamide]	0.343	> 10	–	–	–
Cc1nc(C(C)(CC2CC2)NC(=O)c2cc(O[C@@H](C)C(F)(F)F)c(C3CCC3)cn2)no1 (stereo partly drawn) [Example 121, 5-cyclobutyl-N-[1-cyclopropyl-2-(5-methyl-1,2,4-oxadiazol-3-yl)propan-2-yl]-4-[(2S)-1,1,1-trifluoropropan-2-yl]oxypyridine-2-carboxamide]	0.0006	> 10	–	–	–
CNC(=O)C(C)(NC(=O)c1cc(O[C@@H](C)C(F)(F)F)c(C2(F)COC2)cn1)c1noc(C)n1 (stereo partly drawn) [Example 183, 5-(3-fluorooxetan-3-yl)-N-[1-(methylamino)-2-(5-methyl-1,2,4-oxadiazol-3-yl)-1-oxopropan-2-yl]-4-[(2S)-1,1,1-trifluoropropan-2-yl]oxypyridine-2-carboxamide]	0.917	> 10	–	–	–
Cc1nc(C(C)(CC2CC2)NC(=O)c2cc(OC(C)CF)c(C3CC3)cn2)no1 (single isomer, unassigned) [Example 289, 5-cyclopropyl-N-(1-cyclopropyl-2-(5-methyl-1,2,4-oxadiazol-3-yl)propan-2-yl)-4-(1-fluoropropan-2-yloxy)picolinamide]	0.001	–	–	–	> 10
Cc1nc(C(C)(NC(=O)c2cc(O[C@@H](C)C(F)(F)F)c(C3CC3)cn2)C2CC2)no1 (single isomer, unassigned; epimer b) [Example 69]	0.00025	0.015	–	–	–
Cc1nc(C(C)(CC2CC2)NC(=O)c2cc(O[C@@H](C)C(F)(F)F)c(C3(F)COC3)cn2)no1 (stereo partly drawn) [Example 171, N-[1-cyclopropyl-2-(5-methyl-1,2,4-oxadiazol-3-yl)propan-2-yl]-5-(3-fluorooxetan-3-yl)-4-[(2S)-1,1,1-trifluoropropan-2-yl]oxypyridine-2-carboxamide]	0.0149	> 10	–	–	–
NC(=O)[C@@H]1CC(F)(F)CN1C(=O)c1cc(OCC2CC2)c(C2CC2)cn1 [Example 114, (2S)-1-[5-cyclopropyl-4-(cyclopropylmethoxy)pyridine-2-carbonyl]-4,4-difluoropyrrolidine-2-carboxamide]	1	> 10	–	–	–
